The values that follow come from patent US10138233B2, “Imidazole compounds as modulators of FSHR and uses thereof” (Merck Patent GmbH, priority 2013, dated 2018).

Assay [1] concerns the target T1, follicle-stimulating hormone (FSH) receptor (Rattus norvegicus, UniProt P20395).
T1 construct: Rat Granulosa EC50 FSH (Assay B); endogenous in cells; host or cells: rat granulosa cells
T1 sequence (P20395 18-692): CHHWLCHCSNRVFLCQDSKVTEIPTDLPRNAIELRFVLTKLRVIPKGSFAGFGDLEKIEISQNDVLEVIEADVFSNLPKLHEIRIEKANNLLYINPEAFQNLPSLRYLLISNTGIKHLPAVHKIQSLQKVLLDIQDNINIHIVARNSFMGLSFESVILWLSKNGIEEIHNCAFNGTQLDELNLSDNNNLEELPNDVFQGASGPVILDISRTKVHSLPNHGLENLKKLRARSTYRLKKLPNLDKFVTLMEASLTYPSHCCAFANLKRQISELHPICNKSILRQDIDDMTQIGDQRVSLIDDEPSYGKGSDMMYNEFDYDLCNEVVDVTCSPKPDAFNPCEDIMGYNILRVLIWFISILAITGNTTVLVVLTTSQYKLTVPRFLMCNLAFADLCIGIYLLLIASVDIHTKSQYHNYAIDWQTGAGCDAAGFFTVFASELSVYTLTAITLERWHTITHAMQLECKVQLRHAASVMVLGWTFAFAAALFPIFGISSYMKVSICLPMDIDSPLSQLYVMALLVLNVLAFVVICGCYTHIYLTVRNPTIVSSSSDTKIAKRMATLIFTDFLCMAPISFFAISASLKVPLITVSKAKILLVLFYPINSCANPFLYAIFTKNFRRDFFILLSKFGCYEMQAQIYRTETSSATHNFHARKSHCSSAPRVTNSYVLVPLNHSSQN
Put plainly: Rat Granulosa EC50 FSH (Assay B). The following applies: rat granulosa cells, per Yanofsky et al. 2006. The class given is cell-based.

Assay [2] has as its target T2, FSHR (Homo sapiens, UniProt P23945).
T2 construct: expressed in transfected cells; host or cells: CHO cells, clone Cho-FSHR-LUC-1-1-43
T2 sequence (P23945 18-695): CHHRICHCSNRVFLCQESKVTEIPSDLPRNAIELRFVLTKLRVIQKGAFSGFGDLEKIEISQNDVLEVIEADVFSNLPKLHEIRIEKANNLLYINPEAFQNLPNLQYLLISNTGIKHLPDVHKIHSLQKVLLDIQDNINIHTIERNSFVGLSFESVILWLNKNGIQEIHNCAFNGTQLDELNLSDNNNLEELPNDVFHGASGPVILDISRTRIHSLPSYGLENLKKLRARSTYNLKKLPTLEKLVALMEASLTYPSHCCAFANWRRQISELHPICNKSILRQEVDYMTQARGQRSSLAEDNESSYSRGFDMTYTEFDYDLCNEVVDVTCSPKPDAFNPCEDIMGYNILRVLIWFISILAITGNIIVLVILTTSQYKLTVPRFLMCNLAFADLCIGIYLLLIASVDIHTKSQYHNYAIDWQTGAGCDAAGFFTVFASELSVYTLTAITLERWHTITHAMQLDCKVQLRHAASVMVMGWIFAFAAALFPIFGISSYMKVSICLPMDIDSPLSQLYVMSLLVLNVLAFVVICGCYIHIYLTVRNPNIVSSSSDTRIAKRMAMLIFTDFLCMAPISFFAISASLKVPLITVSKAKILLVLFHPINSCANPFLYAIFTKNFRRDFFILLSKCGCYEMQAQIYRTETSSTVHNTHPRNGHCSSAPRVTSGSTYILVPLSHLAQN
Put plainly: EC50 of cyclic AMP production in CHO FSHR cells + EC20 FSH (Assay A). The assay is classed as cell-based. The conditions noted are these: CHO-FSHR-LUC cells, in presence of EC20 FSH, cAMP HTRF, 1 h 37° C.

On to `[2H]C([2H])([2H])N(CCN(C(=O)c1nc(-c2cccs2)n2c1CCc1cc(OC)c(CC(C)C)cc1-2)C([2H])([2H])[2H])C(C)=O` [Compound 31, 8-Isobutyl-7-methoxy-1-thiophen-2-yl-4,5-dihydro-imidazo[1,5-a]quinoline-3-carboxylic acid [2-(acetyl-methyl-d3-amino)-ethyl]-methyl-d3-amide], for which the figures for the EC50 in assay [1] and in assay [2] were above 5000 nM and 100 to 1000 nM, respectively.

On to `[2H]C([2H])([2H])OCC(C)(C)N(C(=O)c1nc(-c2cccs2)n2c1CCc1cc(OC)c(CC(C)C)cc1-2)C([2H])([2H])[2H]` [Compound 32, 8-Isobutyl-7-methoxy-1-thiophen-2-yl-4,5-dihydro-imidazo[1,5-a]quinoline-3-carboxylic acid (2-methoxy-d3-1,1-dimethyl-ethyl)-methyl-d3-amide], for which the EC50 (usually the concentration at which the effect is half-maximal) in assay [1] is above 5000 nM; in assay [2], below 100 nM.

Regarding `COc1cc2c(cc1CC(C)C)-n1c(S(=O)(=O)C3CC3)nc(C(=O)N(C)C(C)(C)C)c1CC2` [Compound 34, 1-Cyclopropanesulfonyl-8-isobutyl-7-methoxy-4,5-dihydro-imidazo[1,5-a]quinoline-3-carboxylic acid tert-butyl-methyl-amide], the values for the EC50 in assay [1] and in assay [2] were 1000 to 5000 nM and 100 to 1000 nM, respectively.

In the case of `COc1cc2c(cc1OC(C)C)-n1c(-c3cccn3C)nc(C(=O)N3CCOCC3(C)C)c1CC2` [Compound 38], the concentration for a half-maximal effect (EC50) in assay [1] was above 5000 nM; in assay [2], 100 to 1000 nM.

On to `[2H]C([2H])([2H])Oc1cc2c(cc1CC(C)C)-n1c(-c3ccsc3)nc(C(=O)N3CCOCC3(C)C)c1CC2` [Compound 41, (3,3-Dimethyl-morpholin-4-yl)-(8-isobutyl-7-methoxy-d3-1-thiophen-3-yl-4,5-dihydro-imidazo[1,5-a]quinolin-3-yl)-methanone], for which the results for the EC50 in assay [1] and in assay [2] were 1000 to 5000 nM and below 100 nM, respectively.

`COc1cc2c(cc1OC(C)C)-n1c(-c3cccc(Cl)c3)nc(C(=O)N3CCOCC3(C)C)c1CC2` [Compound 44]: the EC50 in assay [1] was above 5000 nM; in assay [2], 100 to 1000 nM.

Take `COc1cc2c(cc1OC(C)C)-n1c(C3=CCCC3)nc(C(=O)N3CCOCC3(C)C)c1CC2` [Compound 49]: the EC50 in assay [1] is above 5000 nM; in assay [2] it was 100 to 1000 nM.

On to `[2H]C([2H])([2H])Oc1cc2c(cc1CC(C)C)-n1c(-c3cccs3)nc(C(=O)N(C)C(C)(C)C)c1CC2` [Compound 53, 8-Isobutyl-7-methoxy-d3-1-thiophen-2-yl-4,5-dihydro-imidazo[1,5-a]quinoline-3-carboxylic acid tert-butyl-methyl-amide], for which the EC50 is 1000 to 5000 nM in assay [1] and below 100 nM in assay [2].

As for `COc1cc2c(cc1OC(C)C)-n1c(-c3ccc(F)s3)nc(C(=O)N3CCOCC3(C)C)c1CC2` [Compound 59], the EC50 in assay [1] is 100 to 1000 nM; in assay [2], below 100 nM.

For the compound `COc1cc2c(cc1OC(C)C)-n1c(-c3cc(C)cs3)nc(C(=O)N3CCOCC3(C)C)c1CC2` [Compound 70], the EC50 was 1000 to 5000 nM in assay [1] and below 100 nM in assay [2].

For the compound `COc1cc2c(cc1OC(C)C)-n1c(-c3ccc(C)s3)nc(C(=O)N3CCOCC3(C)C)c1CC2` [Compound 71], the EC50 in assay [1] was 100 to 1000 nM; in assay [2], below 100 nM.

With `COc1cc2c(cc1OC(C)C)-n1c(-c3ccc(Cl)s3)nc(C(=O)N3CCOCC3(C)C)c1CC2` [Compound 72], the EC50 in assay [1] and in assay [2] was below 100 nM each time.

Take `COc1cc2c(cc1-c1cnn(C)c1)-n1c(-c3cccs3)nc(C(=O)N3CCOCC3(C)C)c1CC2` [Compound 75, (3,3-Dimethyl-morpholin-4-yl)-[7-methoxy-8-(1-methyl-1H-pyrazol-4-yl)-1-thiophen-2-yl-4,5-dihydro-imidazo[1,5-a]quinolin-3-yl]-methanone]: the EC50 is 100 to 1000 nM in assay [1] and below 100 nM in assay [2].

In the case of `COc1cc2c(cc1-c1c[nH]nc1C)-n1c(-c3ccsc3)nc(C(=O)N(C)C(C)(C)C)c1CC2` [Compound 76, 7-Methoxy-8-(3-methyl-1H-pyrazol-4-yl)-1-thiophen-3-yl-4,5-dihydro-imidazo+1,5-a+quinoline-3-carboxylic acid tert-butyl-methyl-amide], the results for the EC50 in assay [1] and in assay [2] were 100 to 1000 nM and below 100 nM, respectively.

Regarding `COc1cc2c(cc1CC(C)C)-n1c(-c3ccc(C)s3)nc(C(=O)N(C)C(C)(C)C)c1CC2` [Compound 96, 8-Isobutyl-7-methoxy-1-(5-methyl-thiophen-2-yl)-4,5-dihydro-imidazo[1,5-a]quinoline-3-carboxylic acid tert-butyl-methyl-amide], the EC50 in assay [1] lay within 1000 to 5000 nM; in assay [2] it was 100 to 1000 nM.

In the case of `COc1cc2c(cc1CC(C)C)-n1c(-c3ccc(Cl)s3)nc(C(=O)N(C)C(C)(C)C)c1CC2` [Compound 97, 1-(5-Chloro-thiophen-2-yl)-8-isobutyl-7-methoxy-4,5-dihydro-imidazo[1,5-a]quinoline-3-carboxylic acid tert-butyl-methyl-amide], the values for the EC50 in assay [1] and in assay [2] were 100 to 1000 nM and below 100 nM, respectively.

Take `COc1cc2c(cc1OC(C)C)-n1c(-c3ccc(F)c(F)c3)nc(C(=O)N3CCOCC3(C)C)c1CC2` [Compound 102]: the EC50 was 1000 to 5000 nM in assay [1] and 100 to 1000 nM in assay [2].

Turning to `COc1cc2c(cc1OC(C)C)-n1c(-c3cc(Cl)cc(Cl)c3)nc(C(=O)N3CCOCC3(C)C)c1CC2` [Compound 110], the EC50 in assay [1] is 100 to 1000 nM; in assay [2] it was below 100 nM.

With `COc1cc2c(cc1OC(C)C)-n1c(-c3cc(Cl)cs3)nc(C(=O)N3CCOCC3(C)C)c1CC2` [Compound 114], the EC50 is 100 to 1000 nM in assay [1] and below 100 nM in assay [2].

Regarding `COc1cc2c(cc1OC(C)C)-n1c(-c3cccc(Cl)c3F)nc(C(=O)N3CCOCC3(C)C)c1CC2` [Compound 134], the EC50 in assay [1] and in assay [2] was 100 to 1000 nM in each case.

Take `COc1cc2c(cc1OC(C)C)-n1c(-c3ccsc3)nc(C(=O)N(C)C(C)(C)C)c1CO2` [Compound 135, 8-Isopropoxy-7-methoxy-1-thiophen-3-yl-4H-5-oxa-2,9b-diaza-cyclopenta[a]naphthalene-3-carboxylic acid tert-butyl-methyl-amide]: the EC50 in assay [1] was above 5000 nM; in assay [2] it was below 100 nM.

With `COc1cc2c(cc1OC(C)C)-n1c(-c3cccs3)nc(C(=O)N3CCOCC3(C)C)c1CO2` [Compound 139, (3,3-Dimethyl-morpholin-4-yl)-(8-isopropoxy-7-methoxy-1-thiophen-2-yl-4H-5-oxa-2,9b-diaza-cyclopenta[a]naphthalen-3-yl)-methanone], the EC50 in assay [1] is 100 to 1000 nM; in assay [2] it was below 100 nM.

Consider `COc1cc2c(cc1-c1ccn(C)c1)-n1c(-c3cccs3)nc(C(=O)N3CCOCC3(C)C)c1CC2` [Compound 143, (3,3-Dimethyl-morpholin-4-yl)-[7-methoxy-8-(1-methyl-1H-pyrrol-3-yl)-1-thiophen-2-yl-4,5-dihydro-imidazo[1,5-a]quinolin-3-yl]-methanone], for which the EC50 in assay [1] was above 5000 nM; in assay [2], below 100 nM.

In the case of `COc1cc2c(cc1-c1ccn(C)n1)-n1c(-c3cccc(Cl)c3)nc(C(=O)N3CCOCC3(C)C)c1CC2` [Compound 148, (1-(3-chlorophenyl)-7-methoxy-8-(1-methyl-1H-pyrazol-3-yl)-4,5-dihydroimidazo[1,5-a]quinolin-3-yl)(3,3-dimethylmorpholino)methanone], the figures for the EC50 in assay [1] and in assay [2] were 1000 to 5000 nM and 100 to 1000 nM, respectively.

Regarding `[2H]C([2H])([2H])n1cc(-c2cc3c(cc2OC)CCc2c(C(=O)N4CCOCC4(C)C)nc(-c4cccn4C)n2-3)cn1` [Compound 149, (3,3-dimethylmorpholino)(7-methoxy-8-(1-methyl-1H pyrazol-4-yl)-1-(1-methyl-1H-pyrrol-2-yl)-4,5-dihydroimidazo[1,5-a]quinolin-3-yl)methanone], the EC50 in assay [1] is 1000 to 5000 nM; in assay [2], below 100 nM.
